Holding throughout (type): in vivo, nude mice
Assay [1] deals with malignant prostate cancer DU145 cells. In words: Example 9: peptide pre-injection, malignant prostate cancer DU145 cells inoculated three months later, tumor volumes. The settings on record: peptide 2 mM, 100 μl i.v. per week for 3 weeks, vs H2O control. How it is done:
(§1) In the following examples, 8-week nude mice were used as host subjects to perform in vivo experiments. The nude mice were placed in room temperature and suitable humidity, and supplied with sterile water and standard food for 2 consecutive weeks before performing experiments. Then, the nude mice were injected with zinc finger-like peptide and tumor cells. The detailed processes for the experiments are described as follows.
(§2) First, manually synthesized zinc finger-like peptide (Genemed Synthesis Inc., San Antonio, Tex., USA) was resuspended in degassed purified water to obtain 1-5 mM of zinc finger-like peptide solution (100 μl). Herein, the solution for suspending the zinc finger-like peptide is not particularly limited. Preferably, the zinc finger-like peptide is resuspended in degassed purified water, in order to prevent the self-polymerization of the zinc finger-like peptide and loss its ability to inhibit tumor cell growth.
(§3) In the present experimental group, zinc finger-like peptide with sequence shown in SEQ ID NO: 1 was injected into nude mice.
Nude mice were injected with an intravenous injection of peptide (2 mM, 100 μl) via tail veins per week for 3 consecutive weeks, followed by inoculating malignant prostate cancer DU145 cells (2 million cells/100 μl medium) at both the right and left flanks three months later. […]

Assay [2] has as its system breast carcinoma MDA-MB-468. In words: Example 7: peptide pre-injection, then breast carcinoma MDA-MB-468 inoculation, tumor volumes. The following applies: peptide 3 mM, 100 μl i.v. per week for 3 weeks before MDA-MB-468 inoculation; vs H2O control. The procedure:
as §1, §2, §3
Nude mice were injected with an intravenous injection of peptide (3 mM, 100 μl) via tail veins per week for 3 consecutive weeks, followed by inoculating breast carcinoma MDA-MB-468 (2 million cells/100 μl medium) at both the right and left flanks. The tumor volumes (mm^3) were observed daily during the whole experiment. […]

Assay [3] has as its system malignant melanoma B 16F10. Kind of assay: Example 4: peptide variants pre-injected, then malignant melanoma B16F10 inoculation, tumor volumes and death. The following applies: peptide 2 mM, 100 μl i.v. per week for 2 weeks before B16F10 inoculation. How it is done: as §1, §2
Nude mice received an intravenous injection of peptide (2 mM, 100 μl) via tail veins per week for 2 consecutive weeks, followed by inoculating malignant melanoma B 16F10 (2 million cells/100 μl PBS) at both the right and left flanks. The tumor volumes (mm^3) were observed daily during the whole experiment.
as §3
In the present experimental group, zinc finger-like peptide with sequence shown in SEQ ID NO: 1, in which the fifth amino acid, serine was phosphorylated, and injected into nude mice.
In the present experimental group, zinc finger-like peptide with sequence shown in SEQ ID NO: 6 was injected into nude mice.
In the present experimental group, zinc finger-like peptide with sequence shown in SEQ ID NO: 6, in which the fourth amino acid serine was phosphorylated, and injected nude mice.
In the control group, H2O (100 μl) was injected into nude mice.

For assay [4], the system named is malignant melanoma B16F10. Kind of assay: Example 3: peptide pre-injection, then malignant melanoma B16F10 inoculation, tumor volumes. The following applies: peptide 2 mM, 100 μl sterile water i.v. per week for 3 weeks before B16F10 inoculation; vs H2O control. How it is done: as §1, §2
Herein, zinc finger-like peptide with sequence shown in SEQ ID NO: 1 is injected into nude mice.
With this experimental group, nude mice received an intravenous injection of peptide (2 mM, 100 μl sterile water) via tail veins per week for 3 consecutive weeks, followed by inoculation of malignant melanoma B16F10 (2 million cells/100 μl PBS) at both the right and left flanks. The tumor volumes (mm^3) were observed daily during the whole experiment. […]

For assay [5], the system named is prostatic epithelial cells PZ-HPV-7. In words: Example 10: peptide pre-injection, then prostatic epithelial cells PZ-HPV-7 inoculation, tumor volumes. The following applies: peptide 2 mM, 100 μl i.v. per week for 3 weeks; PZ-HPV-7 inoculated on the 20th and 90th day; vs H2O control. The procedure: as §1, §2, §3
Nude mice were injected with an intravenous injection of peptide (2 mM, 100 μl) via tail veins per week for 3 consecutive weeks, followed by inoculating prostatic epithelial cells PZ-HPV-7 (2 million cells/100 μl medium) at both the right and left flanks on the 20th day and the 90th day. […]

Assay [6] has as its system malignant glioma U87-MG cells. In words: Example 11: peptide pre-injection, malignant glioma U87-MG cells inoculated 1 month later, tumor volumes. The settings on record: for growth and proliferation of tumor cells (tumor volumes): 100 μl i.v. per week for 3 weeks, U87-MG inoculated 1 month later, vs H2O control. How it is done:
as §1, §2
The process of the present control group was the same as that of the experimental group, except that the zinc finger-like peptide of the experimental group was substituted with H2O (100 μl) in the present control group. The result is shown in FIG. 11A, which is a curve representing the tumor volumes of mice.
as §3
Nude mice were injected with an intravenous injection of peptide (2 mM, 100 μl) via tail veins per week for 3 consecutive weeks, followed by inoculating malignant glioma U87-MG cells (2 million cells/100 μl medium) at both the right and left flanks 1 month later. The tumor volumes (mm^3) were observed daily during the whole experiment. The result is shown in FIG. 11B, which is a curve representing the tumor volumes of mice.
The process of the present control group was the same as that of the experimental group 1, except that the concentration of the zinc finger-like peptide is 4 mM. The result is shown in FIG. 11C, which is a curve representing the tumor volumes of mice.

The subject of another assay is BCC cells. In words: Example 2: peptide pre-injection plus boost injection, BCC cell inoculation, tumor volumes. The following applies: peptide 2 mM, 100 μl i.v. per week for 3 weeks before BCC inoculation; boost per week for 3 weeks 2 months later; vs H2O control. How it is done:
as §1, §2, §3
Nude mice were injected with an intravenous injection of peptide (2 mM, 100 μl PBS) via tail veins per week for 3 consecutive weeks, followed by inoculating BCC cells (2 million cells/100 μl PBS) at both the right and left flanks. 2 months later, boost injection of peptide was carried out per week for 3 consecutive weeks. […]

With “RRSSSCK [SEQ ID NO: 1, zinc finger-like peptide, manually synthesized]”, the “growth and proliferation of tumor cells (tumor volumes)” value in assay [1] was “the growth and proliferation of tumor cells were not observed”; in assay [2], “the growth and proliferation of tumor cells were not observed”; in assay [5], “the growth and proliferation of tumor cells were not observed”; in assay [6] (peptide 2 mM) it was “slower than that observed in the control group”; in assay [6] (peptide 4 mM) it was “slower than that observed in the control group”. Besides, the “skin cancer completely cured after” value in assay [3] was 115 days. Further, the “tumor growth / activity on skin cancer treatment” value in assay [3] (vs H2O control) is “can effectively inhibit the growth of tumor cells”. For the same substance, the “tumor growth (tumor volumes)” value is “can inhibit the growth of skin melanoma on nude mice” in assay [4]; “can prevent and inhibit the growth of cancer cell” in the assay with BCC cells. In addition, in assay [6] (2 mM vs 4 mM peptide, U87-MG), the “concentration dependence of suppression on tumor cell growth” value is given as “the suppression on tumor cell growth was getting significant as the concentration of the zinc finger-like peptide increased”.
